From patent US20180243317A1, “COMPOSITIONS COMPRISING A PI3K INHIBITOR AND AN HDAC INHIBITOR” (KARUS THERAPEUTICS LTD, priority 2015, published 2018)

Assays:
Human HDAC1 = target: T1, Human HDAC1 (Homo sapiens, UniProt Q13547); assay: HDAC biochemical assay with acetylated AMC-labeled peptide substrate; conditions: read-out: IC50 HDAC 1
T1 construct: full length with C-terminal His-tag and C-terminal FLAG-tag; His-tag (C); FLAG-tag (C); made in house; host or cells: baculovirus expression system
T1 sequence (Q13547 whole entry): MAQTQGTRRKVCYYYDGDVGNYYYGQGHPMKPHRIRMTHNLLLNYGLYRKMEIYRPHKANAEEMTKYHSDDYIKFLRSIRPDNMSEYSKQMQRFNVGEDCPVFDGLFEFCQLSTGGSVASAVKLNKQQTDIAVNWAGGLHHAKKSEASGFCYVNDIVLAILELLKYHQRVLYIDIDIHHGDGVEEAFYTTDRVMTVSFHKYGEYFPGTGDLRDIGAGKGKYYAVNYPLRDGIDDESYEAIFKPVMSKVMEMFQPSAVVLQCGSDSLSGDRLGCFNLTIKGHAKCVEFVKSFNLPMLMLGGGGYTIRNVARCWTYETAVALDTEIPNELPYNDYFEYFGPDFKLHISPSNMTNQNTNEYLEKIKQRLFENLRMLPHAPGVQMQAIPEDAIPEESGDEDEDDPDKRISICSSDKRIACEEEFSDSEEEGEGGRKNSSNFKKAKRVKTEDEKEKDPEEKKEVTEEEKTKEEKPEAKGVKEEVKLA
Description: (§1) Activity against all zinc-dependent HDACs 1 to 11 was assessed by using an acetylated AMC-labeled peptide substrate. The substrate RHKKAc was used for all class I and IIb HDACs; for HDAC8, the substrate used was RHKAcKAc. […] All assays were based on the AMC-labeled substrate and developer combination.
(§2) The protocol involved a two-step reaction: first, the substrate with the acetylated lysine side chain is incubated with a sample containing HDAC activity, to produce the deacetylated products, which are then digested in the second step by the addition of developer to produce the fluorescent signal proportional to the amount of deacetylated substrates.
Human HDAC1 (GenBank Accession No. NM_004964), full length with C-terminal His-tag and C-terminal FLAG-tag, MW=56 kDa, expressed in baculovirus expression system.
(§3) Before use, 1 mg/mL BSA and DMSO are added.
(§4) Incubate for 2 hours at 30° C.
(§5) Fluorescence background signal is then subtracted from compound data signal.
(§6) Stage 1: Deacetylation of substrate by incubation of HDAC enzymes with compounds
(§7) Stage 2: Development by addition of Developer to digest the deacetylated substrate, and generate the fluorescent color; Detection: 360/460 Ex/Em

Recombinant human HDAC6 = target: T2, Recombinant human HDAC6 (Homo sapiens, UniProt Q9UBN7); assay: as above; conditions: read-out: IC50 HDAC 6
T2 construct: GST (N); made in house; host or cells: Sf9 insect cells (baculovirus)
T2 sequence (Q9UBN7 1-1215): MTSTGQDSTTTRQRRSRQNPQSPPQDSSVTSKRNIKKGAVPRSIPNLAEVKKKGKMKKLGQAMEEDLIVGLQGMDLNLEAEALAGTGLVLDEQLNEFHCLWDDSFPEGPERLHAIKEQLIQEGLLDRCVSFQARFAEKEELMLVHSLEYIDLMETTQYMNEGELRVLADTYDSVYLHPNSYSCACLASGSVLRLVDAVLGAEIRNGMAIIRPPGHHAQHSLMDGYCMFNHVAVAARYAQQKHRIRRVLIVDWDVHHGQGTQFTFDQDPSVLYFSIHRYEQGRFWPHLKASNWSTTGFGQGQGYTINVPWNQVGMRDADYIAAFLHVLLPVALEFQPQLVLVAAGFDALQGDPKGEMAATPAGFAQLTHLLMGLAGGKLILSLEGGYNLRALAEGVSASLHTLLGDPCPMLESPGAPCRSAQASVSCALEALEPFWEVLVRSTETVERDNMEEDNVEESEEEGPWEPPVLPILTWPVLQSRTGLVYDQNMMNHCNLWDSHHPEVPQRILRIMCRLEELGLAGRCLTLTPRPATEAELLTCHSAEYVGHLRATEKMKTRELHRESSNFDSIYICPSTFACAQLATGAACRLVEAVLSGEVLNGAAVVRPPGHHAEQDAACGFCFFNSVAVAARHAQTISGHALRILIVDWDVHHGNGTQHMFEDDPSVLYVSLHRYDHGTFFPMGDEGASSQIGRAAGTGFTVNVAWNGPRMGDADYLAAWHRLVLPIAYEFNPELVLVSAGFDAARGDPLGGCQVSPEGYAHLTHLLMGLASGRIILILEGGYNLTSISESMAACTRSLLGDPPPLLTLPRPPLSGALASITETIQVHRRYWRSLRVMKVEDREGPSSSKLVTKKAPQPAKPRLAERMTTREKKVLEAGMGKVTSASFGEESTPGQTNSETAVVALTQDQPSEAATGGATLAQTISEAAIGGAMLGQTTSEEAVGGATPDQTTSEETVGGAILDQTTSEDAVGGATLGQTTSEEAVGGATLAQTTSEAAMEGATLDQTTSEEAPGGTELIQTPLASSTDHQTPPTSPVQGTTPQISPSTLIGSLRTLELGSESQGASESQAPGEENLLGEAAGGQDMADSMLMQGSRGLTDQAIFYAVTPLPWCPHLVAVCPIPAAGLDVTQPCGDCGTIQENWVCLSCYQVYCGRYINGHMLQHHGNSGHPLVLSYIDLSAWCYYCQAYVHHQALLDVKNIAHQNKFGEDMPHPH
Description: as §1, §2
Human HDAC5 (GenBank Accession No. NM_005474), full length with N-terminal GST tag, MW=150 kDa, expressed in baculovirus expression system. Recombinant human HDAC6 (GenBank Accession No. BC069243), full length, MW=180 kDa, was expressed by baculovirus in Sf9 insect cells using an N-terminal GST tag.
as §3, §4, §5, §6, §7

Row | SMILES | IC50 (Human HDAC1) [nM] | IC50 (Recombinant human HDAC6) [nM]
1 | Cn1c(N(Cc2ccc(C(=O)NO)cc2)c2ccccn2)nc2ccccc21 [Example J, N-Hydroxy-4-(((1-methyl-1H-benzo[d]imidazol-2-yl)(pyridin-2-yl)amino)methyl)benzamide] | > 10000 | ≤ 500
2 | O=C(NO)c1ccc(CN(c2ccccn2)c2nc(C(F)(F)F)ns2)cc1 [Example W, N-Hydroxy-4-((pyridin-2-yl(3-(trifluoromethyl)-1,2,4-thiadiazol-5-yl)amino)methyl)benzamide] | > 10000 | ≤ 500
3 | Cc1noc(N(Cc2ccc(C(=O)NO)cc2)c2ccc(F)cn2)n1 [Example M, 4-(((5-Fluoropyridin-2-yl)(3-methyl-1,2,4-oxadiazol-5-yl)amino)methyl)-N-hydroxybenzamide] | > 10000 | ≤ 500
4 | Cn1ccc(N(Cc2ccc(C(=O)NO)cc2)c2ccc(F)cn2)n1 [Example O, 4-(((5-Fluoropyridin-2-yl)(1-methyl-1H-pyrazol-3-yl)amino)methyl)-N-hydroxybenzamide] | > 10000 | ≤ 500
5 | O=C(NO)c1ccc(CN(c2ccccn2)c2nccc3sccc23)cc1 [Example BB, N-Hydroxy-4-((pyridin-2-yl(thieno[3,2-c]pyridin-4-yl)amino)methyl)benzamide] | 1000 to 10000 | ≤ 500
6 | Cn1c(N(Cc2ccc(C(=O)NO)cc2)c2ccc(F)cn2)nc2ccccc21 [Example N, 4-(((5-Fluoropyridin-2-yl)(1-methyl-1H-benzo[d]imidazol-2-yl)amino)methyl)-N-hydroxybenzamide] | > 10000 | ≤ 500
7 | Cc1cccc(N(Cc2ccc(C(=O)NO)cc2)c2ccc(N3CCOCC3)cn2)n1 [Example CC, N-Hydroxy-4-(((6-methylpyridin-2-yl)(5-morpholinopyridin-2-yl)amino)methyl)benzamide] | > 10000 | 500 to 1000
8 | COc1cccnc1N(Cc1ccc(C(=O)NO)cc1F)c1cnccn1 [Example KK, 3-Fluoro-N-hydroxy-4-{[(3-methoxypyridin-2-yl)(pyrazin-2-yl)amino]methyl}benzamide] | 1000 to 10000 | ≤ 500
9 | O=C(NO)c1ccc(CN(c2ccncn2)c2cnccn2)c(F)c1 [Example EE] | 1000 to 10000 | ≤ 500
10 | O=C(NO)c1ccc(CN(c2ccncn2)c2cnccn2)nc1 [Example FF, N-Hydroxy-6-{[(pyrazin-2-yl)(pyrimidin-4-yl)amino]methyl}pyridine-3-carboxamide] | > 10000 | ≤ 500
11 | O=C(NO)c1ccc(CN(c2ccccn2)c2nc3ccccc3s2)cc1 [Example V, 4-((Benzo[d]thiazol-2-yl(pyridin-2-yl)amino)methyl)-N-hydroxybenzamide] |  | ≤ 500
12 | COc1cccnc1N(Cc1ccc(C(=O)NO)cc1)c1cnccn1 [Example JJ, N-Hydroxy-4-{[(3-methoxypyridin-2-yl)(pyrazin-2-yl)amino]methyl}benzamide] | 1000 to 10000 | ≤ 500
13 | Cn1ccc(N(Cc2ccc(C(=O)NO)cc2)c2cc(-c3ccc(F)cc3)ccn2)n1 [Example Q, 4-(((4-(4-Fluorophenyl)pyridin-2-yl)(1-methyl-1H-pyrazol-3-yl)amino)methyl)-N-hydroxybenzamide] | 1000 to 10000 | ≤ 500
14 | O=C(NO)c1ccc(CN(c2cnccn2)c2cccnn2)c(F)c1 [Example NN, 3-Fluoro-N-hydroxy-4-{[(pyrazin-2-yl)(pyridazin-3-yl)amino]methyl}benzamide] | > 10000 | ≤ 500
15 | COc1ccc(N(Cc2ccc(C(=O)NO)cc2)c2ccc(C)cn2)nc1 [Example Y, N-Hydroxy-4-(((5-methoxypyridin-2-yl)(5-methylpyridin-2-yl)amino)methyl)benzamide] | > 10000 | ≤ 500
16 | COc1cccnc1N(Cc1ccc(C(=O)NO)cc1)c1ccc(N2CCOCC2)cn1 [Example Z, N-Hydroxy-4-(((3-methoxypyridin-2-yl)(5-morpholinopyridin-2-yl)amino)methyl)benzamide] | > 10000 | ≤ 500
17 | O=C(NO)c1ccc(CN(c2ccccn2)c2ncns2)cc1 [Example K, N-Hydroxy-4-((pyridin-2-yl(1,2,4-thiadiazol-5-yl)amino)methyl)benzamide] | > 10000 | ≤ 500
18 | Cc1nsc(N(Cc2ccc(C(=O)NO)cc2)c2cnccn2)n1 [Example OO, N-Hydroxy-4-{[(3-methyl-1,2,4-thiadiazol-5-yl)(pyrazin-2-yl)amino]methyl}benzamide] | 1000 to 10000 | ≤ 500
19 | Cc1nsc(N(Cc2ccc(C(=O)NO)cc2)c2cc(-c3ccc(F)cc3)ccn2)n1 [Example S, 4-(((4-(4-Fluorophenyl)pyridin-2-yl)(3-methyl-1,2,4-thiadiazol-5-yl)amino)methyl)-N-hydroxybenzamide] | > 10000 | 1000 to 10000
20 | O=C(NO)c1ccc(CN(c2ccccn2)c2nc3ccccc3o2)cc1 [Example I, 4-((Benzo[d]oxazol-2-yl(pyridin-2-yl)amino)methyl)-N-hydroxybenzamide] | 1000 to 10000 | ≤ 500
21 | COc1ccnc(N(Cc2ccc(C(=O)NO)cc2)c2cnccn2)c1 [Example PP, N-Hydroxy-4-{[(4-methoxypyridin-2-yl)(pyrazin-2-yl)amino]methyl}benzamide] | 1000 to 10000 | ≤ 500
22 | O=C(NO)c1ccc(CN(c2ccc(F)cn2)c2cnccn2)cc1 [Example L, 4-(((5-Fluoropyridin-2-yl)(pyrazin-2-yl)amino)methyl)-N-hydroxybenzamide] | > 10000 | ≤ 500
23 | O=C(NO)c1ccc(CN(c2ccc(F)cn2)c2nc(C(F)(F)F)ns2)cc1 [Example T, 4-(((5-Fluoropyridin-2-yl)(3-(trifluoromethyl)-1,2,4-thiadiazol-5-yl)amino)methyl)-N-hydroxybenzamide] | > 10000 | 1000 to 10000
24 | COc1cccnc1N(Cc1ccc(C(=O)NO)cc1)c1ccc(C)cn1 [Example X, N-Hydroxy-4-(((3-methoxypyridin-2-yl)-(5-methylpyridin-2-yl)amino)methyl)benzamide] | > 10000 | ≤ 500
25 | O=C(NO)c1ccc(CN(c2cnccn2)c2cc(-c3ccc(F)cc3)ccn2)cc1 [Example U, 4-(((4-(4-Fluorophenyl)pyridin-2-yl)(pyrazin-2-yl)amino)methyl)-N-hydroxybenzamide] | 1000 to 10000 | ≤ 500
26 | Cc1nnc(N(Cc2ccc(C(=O)NO)cc2)c2ccccn2)s1 [Example H, N-Hydroxy-4-(((5-methyl-1,3,4-thiadiazol-2-yl)(pyridin-2-yl)amino)methyl)benzamide] | > 10000 | ≤ 500
27 | O=C(NO)c1ccc(CN(c2ccc(F)cn2)c2nc3ccccc3o2)cc1 [Example P, 4-((Benzo[d]oxazol-2-yl(5-fluoropyridin-2-yl)amino)methyl)-N-hydroxybenzamide] | > 10000 | ≤ 500
28 | COc1ccc(N(Cc2ccc(C(=O)NO)cc2)c2ccc(N3CCOCC3)cn2)nc1 [Example AA, N-Hydroxy-4-(((5-methoxypyridin-2-yl)(5-morpholinopyridin-2-yl)amino)methyl)benzamide] | 1000 to 10000 | ≤ 500
